Earlier results in patent US6090854A, “Aryloxyanilides and related compounds” (Bristol-Meyers Company, priority 1999, dated 2000).

Tests used:
circadian rhythms = settings: exogenous melatonin, rats; Cassone et al. 1986

COc1ccc2[nH]cc(CCNC(C)=O)c2c1 [melatonin, N-acetyl-5-methoxytryptamine]
synchronization of circadian rhythms (circadian rhythms): found to synchronize circadian rhythms in rats | oral bioavailability: often low and variable
